Some results are limits rather than exact numbers.

The AC50 is the midpoint of the concentration-response curve, whichever way the signal moves.

The first experiment addresses T1, human PAH with the R408W mutation (Homo sapiens, UniProt P00439, R408W).
T1 construct: expressed in transfected cells
T1 sequence (P00439 1-452 R408W): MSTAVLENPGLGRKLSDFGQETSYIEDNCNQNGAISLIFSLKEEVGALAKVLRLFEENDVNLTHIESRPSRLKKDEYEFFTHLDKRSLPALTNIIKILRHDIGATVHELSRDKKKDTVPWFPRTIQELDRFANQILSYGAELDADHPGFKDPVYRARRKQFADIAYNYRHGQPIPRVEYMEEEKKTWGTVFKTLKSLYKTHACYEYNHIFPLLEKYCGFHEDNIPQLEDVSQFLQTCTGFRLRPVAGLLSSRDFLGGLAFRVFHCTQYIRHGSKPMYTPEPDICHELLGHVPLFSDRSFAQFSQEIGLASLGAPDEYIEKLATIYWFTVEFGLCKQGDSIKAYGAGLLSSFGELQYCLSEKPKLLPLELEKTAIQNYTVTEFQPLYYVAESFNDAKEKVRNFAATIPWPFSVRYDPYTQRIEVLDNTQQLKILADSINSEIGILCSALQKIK
The experiment can be described thus: Cell Based Phenylalanine Flux Assay. The settings on record: A375 cells expressing human R408W PAH; 24 hrs compound incubation; 13C-Tyrosine by LC-MS; average where tested multiple times; read-out: AC50.
Turning to `O=C(c1cnn2ccccc12)N1CCc2[nH]cnc2[C@H]1c1nc2ccccc2[nH]1` [Example 923, (S)-(4-(1H-benzo[d]imidazol-2-yl)-6,7-dihydro-1H-imidazo[4,5-c]pyridin-5(4H)-yl)(pyrazolo[1,5-a]pyridin-3-yl)methanone], the AC50 was in the range of 0.5 to 1 µM.

Regarding `Cc1nn(C)cc1-c1nnc(C(=O)N2CCc3[nH]cnc3[C@H]2c2nc3ccccc3s2)o1` [Example 1925], the AC50 was below 0.5 µM.

With `C[C@H]1CN(C(=O)c2nnc(-c3cnn(C)c3)o2)[C@H](c2nc3ccccc3s2)c2nc[nH]c21` [Example 1752, ((4S,7S)-4-(benzo[d]thiazol-2-yl)-7-methyl-6,7-dihydro-1H-imidazo[4,5-c]pyridin-5(4H)-yl)(5-(1-methyl-1H-pyrazol-4-yl)-1,3,4-oxadiazol-2-yl)methanone], the AC50 lay within 0.5 to 1 µM.

As to `O=C(c1cnc(-c2ccc(F)cn2)o1)N1CCc2[nH]cnc2[C@@H]1c1nc2ccccc2s1` [Example 1338, (R)-(4-(benzo[d]thiazol-2-yl)-6,7-dihydro-1H-imidazo[4,5-c]pyridin-5(4H)-yl)(2-(5-fluoropyridin-2-yl)oxazol-5-yl)methanone], the AC50 lay in the range of 1 to 5 µM.

For the compound `CN1CCN(c2nc(C(F)F)c(C(=O)N3CCc4[nH]cnc4[C@H]3c3nc4c(F)cccc4s3)o2)CC1` [Example 2023, (S)-(4-(difluoromethyl)-2-(4-methylpiperazin-1-yl)oxazol-5-yl)(4-(4-fluorobenzo[d]thiazol-2-yl)-6,7-dihydro-1H-imidazo[4,5-c]pyridin-5(4H)-yl)methanone], the AC50 is below 0.5 µM.

In the case of `O=C(c1ccn2ncccc12)N1CCc2[nH]cnc2[C@H]1c1nc2ccccc2s1` [Example 1529], the half-maximal activity concentration (AC50) is 0.5 to 1 µM.

On to `CC(C)n1cc(-c2ncc(C(=O)N3CCc4[nH]cnc4[C@@H]3c3nc4ccccc4s3)o2)cn1` [Example 1416, (R)-(4-(benzo[d]thiazol-2-yl)-6,7-dihydro-1H-imidazo[4,5-c]pyridin-5(4H)-yl)(2-(1-isopropyl-1H-pyrazol-4-yl)oxazol-5-yl)methanone], for which the concentration at half-maximal activity (AC50) was in the range of 1 to 5 µM.

For the compound `O=C(c1nnc(-c2ccc(C(F)(F)F)cn2)o1)N1CCc2[nH]cnc2[C@@H]1c1nc2c(F)cccc2s1` [Example 1847, (R)-(4-(4-fluorobenzo[d]thiazol-2-yl)-6,7-dihydro-1H-imidazo[4,5-c]pyridin-5(4H)-yl)(5-(5-(trifluoromethyl)pyridin-2-yl)-1,3,4-oxadiazol-2-yl)methanone], the AC50 was in the range of 1 to 5 µM.

On to `Cc1nc([C@@H](C)O)oc1C(=O)N1CCc2[nH]cnc2[C@H]1c1nc2c(F)cccc2s1` [Example 1929, ((S)-4-(4-fluorobenzo[d]thiazol-2-yl)-6,7-dihydro-1H-imidazo[4,5-c]pyridin-5(4H)-yl)(2-((R)-1-hydroxyethyl)-4-methyloxazol-5-yl)methanone], for which the half-maximal activity concentration (AC50) was 0.5 to 1 µM.

For the compound `O=C(c1ccnn1-c1ccccc1)N1CCc2[nH]cnc2[C@H]1c1nc2c(F)cccc2s1` [Example 1605], the AC50 is 0.5 to 1 µM.

Take `O=C(CC1CC(F)C1)N1CCc2[nH]cnc2[C@@H]1c1nc2ccccc2s1` (stereo partly drawn) [Example 1246, (R)-1-(4-(benzo[d]thiazol-2-yl)-6,7-dihydro-1H-imidazo[4,5-c]pyridin-5(4H)-yl)-2-(3-fluorocyclobutyl)ethanone]: the AC50 lay in the range of 1 to 5 µM.

Regarding `O=C(CCC1CC1)N1CCc2[nH]cnc2[C@H]1c1nc2ccc(Br)cc2[nH]1` [Example 935, (S)-1-(4-(6-bromo-1H-benzo[d]imidazol-2-yl)-6,7-dihydro-1H-imidazo[4,5-c]pyridin-5(4H)-yl)-3-cyclopropylpropan-1-one], the half-maximal activity concentration (AC50) is below 0.5 µM.

Regarding `O=C(c1ccnn1C(F)F)N1CCc2[nH]cnc2[C@H]1c1nc2c(F)cccc2s1` [Example 1739], the concentration at half-maximal activity (AC50) is below 0.5 µM.

Consider `O=C(c1cnc(-c2cnn(CC(F)(F)F)c2)o1)N1CCc2[nH]cnc2[C@@H]1c1nc2ccccc2s1` [Example 1392, (R)-(4-(benzo[d]thiazol-2-yl)-6,7-dihydro-1H-imidazo[4,5-c]pyridin-5(4H)-yl)(2-(1-(2,2,2-trifluoroethyl)-1H-pyrazol-4-yl)oxazol-5-yl)methanone], for which the concentration at half-maximal activity (AC50) is 1 to 5 µM.

In the case of `Cc1ccc2c(C(=O)N3CCc4[nH]cnc4[C@H]3c3nc4c(C)cccc4s3)cnn2c1` [Example 1295, (S)-(4-(4-methylbenzo[d]thiazol-2-yl)-6,7-dihydro-1H-imidazo[4,5-c]pyridin-5(4H)-yl)(6-methylpyrazolo[1,5-a]pyridin-3-yl)methanone], the half-maximal activity concentration (AC50) was in the range of 0.5 to 1 µM.

Consider `O=C(CCC1CC1)N1CCc2[nH]cnc2[C@H]1c1nc2ccc(Cl)cc2[nH]1` [Example 939, (S)-1-(4-(6-chloro-1H-benzo[d]imidazol-2-yl)-6,7-dihydro-1H-imidazo[4,5-c]pyridin-5(4H)-yl)-3-cyclopropylpropan-1-one], for which the concentration at half-maximal activity (AC50) was below 0.5 µM.

Turning to `O=C(c1cnn(CC(F)(F)F)c1C(F)F)N1CCc2[nH]cnc2[C@H]1c1nc2c(F)cccc2s1` [Example 1975], the AC50 lay in the range of 1 to 5 µM.

In the case of `CC(C)(C#N)c1nc(C(F)F)c(C(=O)N2CCc3[nH]cnc3[C@@H]2c2nc3c(F)cccc3s2)o1` [Example 2028, (R)-2-(4-(difluoromethyl)-5-(4-(4-fluorobenzo[d]thiazol-2-yl)-4,5,6,7-tetrahydro-1H-imidazo[4,5-c]pyridine-5-carbonyl)oxazol-2-yl)-2-methylpropanenitrile], the AC50 was below 0.5 µM.

Take `O=C(C1CC1)N1CCc2[nH]cnc2[C@@H]1c1nc2ccccc2s1` [Example 1074, (R)-(4-(benzo[d]thiazol-2-yl)-6,7-dihydro-1H-imidazo[4,5-c]pyridin-5(4H)-yl)(cyclopropyl)methanone]: the concentration at half-maximal activity (AC50) was above 5 µM.

As for `CC(C)(O)Cn1cc(C(=O)N2CCc3[nH]cnc3[C@H]2c2nc3c(F)cccc3s2)c(Cl)n1` [Example 1994], the AC50 lay within 1 to 5 µM.

For `O=C(c1oc(-c2ccccn2)nc1C(F)(F)F)N1CCc2[nH]cnc2[C@H]1c1nc2c(F)cccc2s1` [Example 1611, (S)-(4-(4-fluorobenzo[d]thiazol-2-yl)-6,7-dihydro-1H-imidazo[4,5-c]pyridin-5(4H)-yl)(2-(pyridin-2-yl)-4-(trifluoromethyl)oxazol-5-yl)methanone], the AC50 was below 0.5 µM.

As for `O=C(CC1CCCC1)N1CCc2[nH]cnc2[C@H]1c1nc2ccccc2[nH]1` [Example 929, (S)-1-(4-(1H-benzo[d]imidazol-2-yl)-6,7-dihydro-1H-imidazo[4,5-c]pyridin-5(4H)-yl)-2-cyclopentylethanone], the half-maximal activity concentration (AC50) is below 0.5 µM.

Turning to `O=C(c1ncc(Cl)s1)N1CCc2[nH]cnc2[C@H]1c1nc2ccc(Br)cc2[nH]1` [Example 975, (S)-(4-(6-bromo-1H-benzo[d]imidazol-2-yl)-6,7-dihydro-1H-imidazo[4,5-c]pyridin-5(4H)-yl)(5-chlorothiazol-2-yl)methanone], the AC50 lay in the range of 0.5 to 1 µM.

The experiment is the same for the next values; noted with them: A375 cells expressing human R408W PAH; 24 hrs with compound; 13C-Tyrosine by LC-MS; average where tested multiple times; read-out: AC50.
For `O=C(c1cnn2cccc(F)c12)N1CCc2[nH]cnc2C1c1nc2ccc(Br)cc2[nH]1` (centres unmarked), the AC50 is above 5 µM.

For the compound `Cn1nc(C#N)cc1C(=O)N1CCc2[nH]cnc2C1c1nc2c(F)cccc2s1` (centres unmarked), the AC50 was 1 to 5 µM.

Regarding `Cc1nc(C(C)(C)O)oc1C(=O)N1CC(C)c2[nH]cnc2C1c1nc2c(F)cccc2s1` (centres unmarked), the concentration at half-maximal activity (AC50) fell in the range of 1 to 5 µM.

For `COC(=O)N1CC(C(=O)N2CCc3[nH]cnc3[C@@H]2c2nc3c(F)cccc3s2)C1` (single isomer, unassigned), the AC50 was above 5 µM.

For `Cn1ncc(C(=O)N2CCc3[nH]cnc3C2c2nc3c(F)cccc3s2)c1C(F)(F)F` (centres unmarked), the half-maximal activity concentration (AC50) lay in the range of 1 to 5 µM.

On to `Cn1nc(-c2ccccn2)cc1C(=O)N1CCc2[nH]cnc2C1c1nc2c(F)cccc2s1` (centres unmarked), for which the AC50 was above 5 µM.

As to `O=C(C1CC1)N1CCc2[nH]cnc2C1c1nc2ccc(Br)cc2s1` (centres unmarked), the half-maximal activity concentration (AC50) fell in the range of 1 to 5 µM.

`Cc1nc(-c2ccccn2)c(C(=O)N2CCc3[nH]cnc3C2c2nc3c(F)cccc3s2)o1` (centres unmarked): the AC50 lay within 1 to 5 µM.

In the case of `CC(C)(O)c1cc(C(=O)N2CCc3[nH]cnc3C2c2nc3c(F)cccc3s2)sn1` (centres unmarked), the half-maximal activity concentration (AC50) is above 5 µM.

Regarding `CC(C)(O)c1cc(C(=O)N2CCc3[nH]cnc3[C@H]2c2nc3ccccc3s2)sn1` (single isomer, unassigned), the AC50 is 1 to 5 µM.

Regarding `O=C(c1ncco1)N1CCc2[nH]cnc2C1c1nc2ccccc2s1` (centres unmarked), the AC50 was above 5 µM.

As for `O=C(c1cn[nH]c1)N1CCc2[nH]cnc2C1c1nc2ccccc2[nH]1` (centres unmarked), the half-maximal activity concentration (AC50) was above 5 µM.

On to `O=C(c1cnn2cc(Br)ccc12)N1CCc2[nH]cnc2C1c1nc2ccc(Br)cc2[nH]1` (centres unmarked), for which the AC50 lay within 1 to 5 µM.

In the case of `O=C(c1cnco1)N1CC2(CC2)c2[nH]cnc2C1c1nc2c(F)cccc2s1` (centres unmarked), the AC50 was above 5 µM.

As for `Cn1ncc(C(=O)N2CCc3[nH]cnc3C2c2nc3ccccc3s2)n1` (centres unmarked), the AC50 is above 5 µM.

`Cc1ccc2c(C(=O)N3CCc4[nH]cnc4[C@H]3c3nc4ccccc4[nH]3)cnn2c1` [(S)-(4-(1H-benzo[d]imidazol-2-yl)-6,7-dihydro-1H-imidazo[4,5-c]pyridin-5(4H)-yl)(6-methylpyrazolo[1,5-a]pyridin-3-yl)methanone]: the AC50 is 1 to 5 µM.

Regarding `O=C(N1CCC(c2ccccc2)C1)N1CCc2[nH]cnc2C1c1nc2ccccc2s1` (centres unmarked), the half-maximal activity concentration (AC50) is above 5 µM.

Turning to `O=C(c1cnn2cccc(F)c12)N1CCc2[nH]cnc2C1c1nc2c(F)cccc2s1` (centres unmarked), the AC50 fell in the range of 1 to 5 µM.

Values taken from patent US20250171438A1 (Agios Pharmaceuticals, Inc., priority 2022, published 2025).
